Experimental data as given in patent US9662303B2, “Composition and method for treating cancer” (PG-Pharma, LLC, priority 2006, dated 2017).
Where two headings read alike, the source gives them in different places.

Columns and labels:
thymus = settings: old mice; refs (5;11); cited from earlier work
fibrosarcoma HT1080 = settings: ref (10); cited from earlier work
[1] = test system: Erythrocytes (red blood cells, RBCs); settings: RBCs separated from WBCs, in buffer, concentrations higher than those effective on cancer cells; refs (11;32); cited from earlier work
ovarian A2780 = settings: ref (10); cited from earlier work
bone marrow = settings: cited from earlier work
breast M231 = settings: ref (10); cited from earlier work
MCF-7 mammary carcinoma = settings: cited from earlier work
cadherin-5 = settings: human SH-SY5YTRK-A neuroblastoma cells pre-treated with NgF; ref (11); cited from earlier work
mice = assay: Toxicity to mice; assay type: in vivo; settings: up to 30 mg/kg body weight
Experimental: In addition, concentration of up to 30 mg/kg body weigh was not toxic to mice. DTS seems to activate the bone marrow at 10 mg/kg body weight since granulocytes differential count was increased by 50% (5).

ovarian OVCAR4 = settings: ref (10); cited from earlier work
immune system = assay: Stimulation of the immune system in mice; assay type: in vivo; settings: 11 mg/kg body weight
Experimental: The DTS-albumin formulation of the present invention can also be administered to a patient with a formulation dosage that is predetermined based upon data specific to that patient. For example, weight, metabolic factors, genetic factors, etc. can contribute to varying predetermined dosage amounts that are used to prescribe the specific predetermined dosage to the patient. Preferably the formulation dosage is between about 0.023 mg/kg and about 2.3 mg/kg body weight. […] The DTS-BSA complex was active at 0.5 ng/mL in vitro dose, a ratio of about 480. Thus, 11 divided by 480 is about 0.023 mg/Kg body weight (minimum). Similarly, the maximum is about 2.3 mg/Kg body weight. If we assumed that the maximum weigh of a human to be treated with the ATS-albumin complex Is 70 Kg, then the upper limit would be […]=1.61 mg/70 kg body weight.

[2] = Spectrophotometric absorbance binding experiments on pure tyrosine and phenylalanine; settings: room temperature
Excerpt: Here is an outline of these experiments:
1. A plot of Absorbance (nm) with time (mins) of the interaction with tyrosine and DTS gives a normal distribution (Gaussian) with the highest optimum at room temperature.
2. As temperature is increased there is a lowering of the optimum on the graph until a straight line is created.
4. Phenylalanine, which is an aromatic amino acid, gives a straight line at room temperature with DTS, while DTS and tyrosine give a Gaussian distribution; the height of the curve is a function of the ratio of the DTS used.

[3] = test system: human SH-SY5Y neuroblatsoma cells; assay: Anti-proliferation/cytotoxic activity of DTS and DTS-BSA complex on SH-SY5Y cells; assay type: cell-based; settings: for Percentage anti-proliferation activity: SH-SY5Y
Excerpt: 3. […] 4. […] See Williams et al., (2004) West Indian Medical Journal 53 (4) pp. 208-219 for the preparation of cell culture medium and assessment of anti-proliferation/cytotoxic activity on the human SH-SY5Y neuroblatsoma cells (12); the previous reference is hereby incorporated by reference in its entirety. A summary of the results from an experiment involving the above synthesis method were as follows: […]

adenocarcinoma HeLa = settings: ref (10); cited from earlier work
[4] = biological target: T1, Bovine Serum Albumin (BSA) (Bos taurus, UniProt P02769); settings: personal communication; cited from earlier work
Jurkat leukaemia = settings: ref (10); cited from earlier work
Starfish embryos = settings: ref (11); cited from earlier work
[5] = biological target: T1, Bovine Serum Albumin (BSA); settings: 500 ng/mL (0.5 μg/mL), pH 6.0; ref (11); cited from earlier work
SH-SY5Y neuroblastoma = settings: cited from earlier work
IPC-melanoma = settings: ref (9), cited from earlier work
[6] = biological target: mitogen-activated protein kinases phosphatase 1 (MKP-1) (Homo sapiens, UniProt P28562); settings: in vitro; ref (12); cited from earlier work
[7] = test system: A637 primary bladder carcinoma; settings: ref (9); cited from earlier work
[8] = test system: human fibroblast (HOFA) cell line; settings: over seven days; ref (9); cited from earlier work
[9] = test system: human TE-671 sarcoma cell line; settings: 0.56 μM, ref (9); cited from earlier work
Peyer's patches = assay: Effect on Peyer's patches; settings: in vivo
Excerpt: The manipulation of various homing factors e.g. L-selectin-mAb LM1-3 and addressin-mAdCAM-1 and integrins such as alpha4beta7 as therapeutic targets on Peyer's patches dendritic cells is a rapidly expanding field in drug development against intestinal bowel diseases (IBD) e.g. colitis, colorectal carcinoma and Chrohn's disease (20;21). DTS caused an enlargement in Peyer's patches possible by an activation of cell proliferation. Thus, based on this finding we hereby proposed that the effect of DTS on the Peyer's patches should be elucidated with the hope of developing drugs against IBD.

[10] = test system: MAPKinase (erk 1 and erk 2); settings: induced by basic fibroblast growth factor (bFGF); 1.0 μM; refs (7;11); cited from earlier work
[11] = test system: non-small cell lung cancer H460; settings: ref (10); cited from earlier work
A549 = settings: ref (9); cited from earlier work
Th-1 and Th-2 cytokines = settings: Human Mixed Lymphocytes Responses, CD3 dependent activation, cited from earlier work

T1 sequence (P02769 25-607): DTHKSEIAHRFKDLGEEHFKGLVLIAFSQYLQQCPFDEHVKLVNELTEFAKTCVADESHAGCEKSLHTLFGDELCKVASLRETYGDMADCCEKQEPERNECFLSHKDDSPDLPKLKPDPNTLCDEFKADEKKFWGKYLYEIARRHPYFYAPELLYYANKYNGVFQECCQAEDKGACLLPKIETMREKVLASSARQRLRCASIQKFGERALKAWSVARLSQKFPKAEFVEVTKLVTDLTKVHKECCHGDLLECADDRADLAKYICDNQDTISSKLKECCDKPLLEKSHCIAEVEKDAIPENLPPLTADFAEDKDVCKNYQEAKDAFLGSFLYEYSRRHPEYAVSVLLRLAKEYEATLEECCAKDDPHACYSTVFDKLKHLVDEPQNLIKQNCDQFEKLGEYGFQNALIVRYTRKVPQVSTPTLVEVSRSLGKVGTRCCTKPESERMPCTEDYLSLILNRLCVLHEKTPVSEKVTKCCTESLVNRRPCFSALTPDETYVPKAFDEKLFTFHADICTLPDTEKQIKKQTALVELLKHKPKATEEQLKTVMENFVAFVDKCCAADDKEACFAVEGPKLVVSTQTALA
mitogen-activated protein kinases phosphatase 1 (MKP-1), sequence (P28562 whole entry, species assumed): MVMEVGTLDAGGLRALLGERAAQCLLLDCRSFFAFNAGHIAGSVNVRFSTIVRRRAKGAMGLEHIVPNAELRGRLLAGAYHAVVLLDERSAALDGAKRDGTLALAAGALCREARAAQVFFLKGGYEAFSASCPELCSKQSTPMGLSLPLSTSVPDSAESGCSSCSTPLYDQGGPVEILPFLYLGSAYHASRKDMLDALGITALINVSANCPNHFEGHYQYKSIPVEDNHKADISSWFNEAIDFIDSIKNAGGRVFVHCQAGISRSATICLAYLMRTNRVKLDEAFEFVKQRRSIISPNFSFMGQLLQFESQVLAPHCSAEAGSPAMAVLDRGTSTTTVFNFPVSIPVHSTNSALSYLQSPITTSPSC

Q: With c1ccc(CSSSCc2ccccc2)cc1 [DTS, dibenzyl trisulphide] as the compound, how does the thymic weight (thymus) read?
A: increase

Q: What about the IC50 (fibrosarcoma HT1080) of the same compound?
A: 1900 nM

Q: What about the effect on erythrocytes [1] of the same compound?
A: cell-cell attraction with morphological changes without lysis

Q: What about the IC50 (ovarian A2780) of the same compound?
A: 400 nM

Q: And the “increase of granulocytes differential count” value (bone marrow; 10 mg/kg body weight, ref (5))?
A: 50%

Q: What about the “production of granulocytes and erythrocytes” value (bone marrow; refs (5;11)) of the same compound?
A: increased

Q: What about the IC50 (breast M231) of the same compound?
A: 2400 nM

Q: And the IC50 (MCF-7 mammary carcinoma; ref (9))?
A: 2.24 µM

Q: What about the IC50 (MCF-7 mammary carcinoma; ref (10)) of the same compound?
A: 6.6 µM

Q: And the “expression of cadherin-5” value (cadherin-5)?
A: up-regulate

Q: What about the toxicity to mice (mice) of the same compound?
A: not toxic

Q: And the IC50 (ovarian OVCAR4)?
A: 1400 nM

Q: What about the “effect on the immune system” value (immune system) of the same compound?
A: stimulated the immune system

Q: And the “binding to aromatic amino acids (absorbance)” value [2]?
A: binds only to tyrosine

Q: What about the “effective in vitro dose” value ([3]; DTS alone, in vitro, cell system not stated) of the same compound?
A: 240 ng/mL

Q: What about the Percentage anti-proliferation activity ([3]; DTS at 39 ng/mL (No BSA)) of the same compound?
A: 1.68%

Q: And the Percentage anti-proliferation activity ([3]; DTS at 78 ng/mL (No BSA))?
A: 38.22%

Q: And the Percentage anti-proliferation activity ([3]; DTS at 1.25 μg/mL (No BSA))?
A: 93.00%

Q: What about the IC50 (adenocarcinoma HeLa) of the same compound?
A: 2500 nM

Q: What about the “binding of glucose to BSA” value [4] of the same compound?
A: inhibit

Q: What about the IC50 (Jurkat leukaemia) of the same compound?
A: 350 nM

Q: And the “effect on protein biosynthesis” value (Starfish embryos)?
A: did not have any effect

Q: And the “protection of BSA from denaturation” value [5]?
A: 50.83%

Q: What about the “enhancement of cytotoxic action by complexing DTS to Bovine Serum Albumin” value (SH-SY5Y neuroblastoma; SH-SY5Y in vitro, refs (11;12)) of the same compound?
A: 70 fold

Q: And the IC50 (SH-SY5Y neuroblastoma; SH-SY5Y neuroblastoma, ref (9))?
A: 430 nM

Q: And the “nuclear morphology (mitotic catastrophe)” value (IPC-melanoma; IPC-melanoma cells exposed to 1.0 μM)?
A: nuclear fragmentation

Q: And the IC50 (IPC-melanoma; IPC-melanoma)?
A: 2900 nM

Q: What about the “binding of MKP-1 to its substrate OMFP” value [6] of the same compound?
A: enhance

Q: And the IC50 [7]?
A: 18.8 µM

Q: What about the “toxicity to human fibroblast (HOFA) cell line” value [8] of the same compound?
A: not to be toxic

Q: What about the anti-proliferation/cytotoxic activity [9] of the same compound?
A: 44.67%

Q: What about the “Peyer's patches size” value (Peyer's patches) of the same compound?
A: enlargement

Q: And the “hyperphosphorylation of MAPKinase (erk 1 and erk 2) signalling” value [10]?
A: 30%

Q: What about the IC50 [11] of the same compound?
A: 5.1 µM

Q: What about the IC50 (A549) of the same compound?
A: 15.8 µM

Q: What about the “Th-2 cytokines such as IL-4” value (Th-1 and Th-2 cytokines) of the same compound?
A: up-regulated

Q: What about the Th-1 cytokines (Th-1 and Th-2 cytokines; ref (11)) of the same compound?
A: down regulates
